Source: patent publication EP1576946A1, “Use of inhibitors of gram-positive cocci in deodorants and antiperspirants” (Henkel Kommanditgesellschaft auf Aktien, priority 2004, dated 2005)

Tested on: Anaerococcus octavius (Peptostreptococcus octavius)
Test: Filter paper/surface method: inhibition zone and growth under the filter disc
Format: cell-based
Protocol: Weiterhin wurden die Wirkstoffe mit Hilfe des Filterpapier/Oberflächenverfahrens vermessen. Der Testkeim Anaerococcus octavius (Peptostreptococcus octavius) war erhältlich als DSM 10024; er wurde 5 Tage bei 37 °C vorinkubiert. 0,3 ml Wirkstofflösung bzw. 0,3 g wirkstoffhaltiges Produkt wurden auf eine Filterpapierscheibe mit einem Durchmesser von 4,5 cm aufgebracht, anschließend wurde die Filterpapierscheibe auf den bakterienhaltigen Agar gelegt. Nach der Inkubationszeit wurde die Größe des gebildeten Hemmhofes vermessen. Bei den Lösungen, für die kein Hemmhof detektiert werden konnte, weil der Wirkstoff nicht in den Agar penetriert war, wurde zusätzlich das Wachstum unter den Filterpapierscheiben beurteilt.

[1] = 8 Gew.-% Aktivsubstanz, medium Wasser/ Ethanol (30 Vol.-% / 70 Vol.-%), pH after adjustment 4,2
[2] = 20 Gew.-% Aktivsubstanz, medium Wasser, pH after adjustment 4,2
[3] = 22 Gew.-% Aktivsubstanz, medium Wasser, pH after adjustment ca. 4
[4] = 0,5 Gew.-% Aktivsubstanz, medium Wasser, pH tel quel 6,5, after addition of Citronensäure 5,1

Q: Which “Wachstum unter der Filterscheibe” value (2 Gew.-% Aktivsubstanz, medium Ethanol) does the source give for `O=C(O)CCCCCCC/C=C\CCCCCCCC(=O)O` [Arlatone DCA, 9(Z)-Octadecendicarbonsäure] here?
A: Its value is “kein Wachstum”.

Q: What about the zone of inhibition at 2 % (Anaerococcus octavius, 2 Gew.-% Aktivsubstanz, medium Ethanol, read-out: Durchmesser des Hemmhofes) of the same molecule?
A: The zone of inhibition at 2 % was 4 mm.

Q: What does the source list for `CCCCC(CC)COCC(O)CO` (stereo not drawn) [Sensiva SC 50, α-Mono-(2-ethylhexyl)glycerinether]?
A: Wachstum unter der Filterscheibe (0,5 Gew.-% Aktivsubstanz, medium Wasser/ Ethanol (50 Vol.-% / 50 Vol.-%), pH tel quel 6,65, after addition of Citronensäure 5,1): deutlich gehemmt; zone of inhibition at 0.5 % (Anaerococcus octavius, read-out: Durchmesser des Hemmhofes): 0 mm

Q: What does the source list for Aluminium chlorohydrate?
A: Durchmesser des Hemmhofes [1]: 0 mm; Wachstum unter der Filterscheibe [1]: deutlich gehemmt; Durchmesser des Hemmhofes [2]: 0 mm; Wachstum unter der Filterscheibe [2]: leicht gehemmt

Q: “Aluminium Zirconium Tetrachlorohydrex Gly [REACH AZP 908 (Powder)]” was tested. Which “Durchmesser des Hemmhofes” value [3] did it give?
A: The value was 0 mm.

Q: And the “Wachstum unter der Filterscheibe” value [3]?
A: The value was “kein Wachstum”.

Q: For Zinkgluconat, which “Durchmesser des Hemmhofes” value [4] is on record?
A: Its value is 0 mm.

Q: And the “Wachstum unter der Filterscheibe” value [4]?
A: Its value is “deutlich gehemmt”.
